Measured values: BindingDB's records for patent US12391671 (Dana-Farber Cancer Institute, 2025)

Key:
Test in all cases: HTRF-Based EGFR Biochemical Assay
[1] = target: Epidermal growth factor receptor [T790M,L858R] (Homo sapiens, UniProt P00533, L858R/T790M)
Procedure: (§1) EGFR biochemical activity measurements were carried out using the homogeneous time-resolved fluorescence (HTRF) assay (Cisbio), inhibitors and DMSO normalizations were first dispensed to empty black low-volume 384-well plates (Corning) with 0300 digital liquid dispenser (HP). All reactions were carried out at room temperature and solutions were added to plates with a Multidrop Combi Reagent Dispenser (ThermoFisher). The reaction mixture (10 μL final volume) contained 1 μM tyrosine kinase peptide-biotin substrate and mutant EGFR in a reaction buffer (50 mM HEPES pH 7.0, 5 mM MgCl2, 1 mM MnCl2, 0.01% BSA, 2 mM TCEP, 0.1 mM NaVO4). Enzyme concentrations were adjusted to accommodate varying kinase activities (L858R 0.1 nM, L858R/T790M 0.02 nM). Enzyme reaction solution (2× concentrations, 5 μL) was added to 384-well plates containing compounds and incubated for 30 mins. Enzyme reactions were initiated with the addition of 5 μL of ATP to a final concentration of 100 μM and reacted for 20 mins. Reactions were quenched with the addition of 10 μL of phospho-tyrosine antibody-Europium(III) cryptate (1-to-180 volume ratio) and Streptavidin-XL665 (46.7 nM) in EDTA-containing detection buffer, then incubated at room temperature for 1 hour, and read with a PHERAstar plate reader (excitation=337 nm, emission=620 nm and 665 nm).

[2] = target: Epidermal growth factor receptor [L858R] (Homo sapiens, UniProt P00533, L858R)
Sequence of Epidermal growth factor receptor [L858R] (P00533 25-1210 L858R limits assumed): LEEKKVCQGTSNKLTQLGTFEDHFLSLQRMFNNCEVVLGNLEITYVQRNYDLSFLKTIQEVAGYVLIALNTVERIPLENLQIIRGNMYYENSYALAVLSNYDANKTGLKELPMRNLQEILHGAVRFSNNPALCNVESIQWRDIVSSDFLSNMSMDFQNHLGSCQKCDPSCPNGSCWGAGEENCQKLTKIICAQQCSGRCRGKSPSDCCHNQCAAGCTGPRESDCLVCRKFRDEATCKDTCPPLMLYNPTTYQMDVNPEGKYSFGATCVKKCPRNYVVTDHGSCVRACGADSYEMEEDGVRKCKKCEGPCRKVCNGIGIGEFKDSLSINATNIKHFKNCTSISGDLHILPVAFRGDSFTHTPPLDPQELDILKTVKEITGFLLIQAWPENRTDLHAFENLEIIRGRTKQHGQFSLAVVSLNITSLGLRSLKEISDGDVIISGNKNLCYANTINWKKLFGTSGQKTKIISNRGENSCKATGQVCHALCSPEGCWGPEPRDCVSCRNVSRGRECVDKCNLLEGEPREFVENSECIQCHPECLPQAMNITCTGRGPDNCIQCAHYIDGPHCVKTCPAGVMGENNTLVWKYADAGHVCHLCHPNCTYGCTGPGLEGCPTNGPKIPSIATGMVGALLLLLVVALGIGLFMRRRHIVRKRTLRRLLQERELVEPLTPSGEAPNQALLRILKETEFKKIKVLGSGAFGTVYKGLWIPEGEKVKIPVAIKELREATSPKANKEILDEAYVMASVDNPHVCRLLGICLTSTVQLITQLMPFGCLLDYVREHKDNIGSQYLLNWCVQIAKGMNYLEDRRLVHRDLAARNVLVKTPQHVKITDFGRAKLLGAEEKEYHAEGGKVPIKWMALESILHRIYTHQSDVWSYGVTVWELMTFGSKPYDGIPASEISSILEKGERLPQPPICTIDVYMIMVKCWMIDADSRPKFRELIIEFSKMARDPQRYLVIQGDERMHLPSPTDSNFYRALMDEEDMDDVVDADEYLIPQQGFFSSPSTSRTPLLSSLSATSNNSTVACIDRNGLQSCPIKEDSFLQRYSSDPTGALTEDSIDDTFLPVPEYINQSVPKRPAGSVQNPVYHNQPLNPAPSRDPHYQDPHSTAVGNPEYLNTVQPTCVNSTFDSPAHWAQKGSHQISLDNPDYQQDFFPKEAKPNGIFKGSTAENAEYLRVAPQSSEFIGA
Procedure: as §1

[3] = target: Epidermal growth factor receptor [T790M,L858R] (Homo sapiens, UniProt P00533, T790M/L858R)
Sequence of Epidermal growth factor receptor [T790M,L858R] (Homo sapiens, UniProt P00533, T790M/L858R) (P00533 25-1210 T790M/L858R limits assumed): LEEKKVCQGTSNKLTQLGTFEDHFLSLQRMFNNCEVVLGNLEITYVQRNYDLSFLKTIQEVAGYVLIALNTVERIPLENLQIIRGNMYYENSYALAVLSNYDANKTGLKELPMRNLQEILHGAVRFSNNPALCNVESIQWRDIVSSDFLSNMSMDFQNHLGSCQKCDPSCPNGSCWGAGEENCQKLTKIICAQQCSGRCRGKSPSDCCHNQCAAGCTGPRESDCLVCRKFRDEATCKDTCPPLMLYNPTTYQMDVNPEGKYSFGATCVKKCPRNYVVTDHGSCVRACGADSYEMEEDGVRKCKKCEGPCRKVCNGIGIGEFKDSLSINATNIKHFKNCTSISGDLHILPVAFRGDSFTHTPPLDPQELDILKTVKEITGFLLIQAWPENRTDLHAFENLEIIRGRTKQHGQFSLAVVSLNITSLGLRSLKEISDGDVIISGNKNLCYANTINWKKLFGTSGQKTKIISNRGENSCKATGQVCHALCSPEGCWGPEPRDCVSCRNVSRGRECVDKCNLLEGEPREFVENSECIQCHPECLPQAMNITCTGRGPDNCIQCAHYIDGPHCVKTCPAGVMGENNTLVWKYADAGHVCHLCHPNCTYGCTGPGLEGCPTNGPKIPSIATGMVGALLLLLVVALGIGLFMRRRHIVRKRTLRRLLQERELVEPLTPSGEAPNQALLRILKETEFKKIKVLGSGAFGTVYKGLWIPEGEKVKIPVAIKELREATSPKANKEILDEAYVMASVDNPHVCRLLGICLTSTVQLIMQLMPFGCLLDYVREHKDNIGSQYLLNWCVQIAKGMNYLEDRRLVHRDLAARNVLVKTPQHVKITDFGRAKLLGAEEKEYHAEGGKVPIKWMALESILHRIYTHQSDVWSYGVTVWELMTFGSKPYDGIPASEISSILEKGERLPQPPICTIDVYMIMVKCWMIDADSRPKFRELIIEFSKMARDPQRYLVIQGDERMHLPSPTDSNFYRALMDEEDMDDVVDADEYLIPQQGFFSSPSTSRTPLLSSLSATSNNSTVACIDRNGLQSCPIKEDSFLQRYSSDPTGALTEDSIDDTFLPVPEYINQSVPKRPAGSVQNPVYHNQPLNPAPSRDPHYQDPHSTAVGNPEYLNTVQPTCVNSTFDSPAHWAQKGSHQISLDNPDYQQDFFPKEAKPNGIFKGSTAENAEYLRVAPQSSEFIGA
Procedure: as §1

Sequence of Epidermal growth factor receptor [T790M,L858R] (Homo sapiens, UniProt P00533, L858R/T790M) (P00533 25-1210 T790M/L858R limits assumed): as above

| IC50 [1] | IC50 [2] | IC50 [3] | SMILES |
| --- | --- | --- | --- |
| 2 nM | 6 nM | – | O=C1c2cc(-c3ccc(N4CCNCC4)cc3)ccc2CN1C(c1nc2ccccc2[nH]1)c1cc(F)ccc1O (stereo not drawn) [US12391671, Compound 021] |
| 0.3 nM | 2 nM | – | CN1CCC(c2ccc(-c3ccc4c(c3F)C(=O)N(C(c3nc5ccccc5[nH]3)c3cc(F)ccc3O)C4)cc2)CC1 (stereo not drawn) [US12391671, Compound 032] |
| 73 nM | 49 nM | – | CN1CCC(c2ccc(-c3ccc4c(c3)C(=O)N(C(c3nc5ccccc5[nH]3)c3cccc(Cl)c3O)C4)cc2)CC1 (stereo not drawn) [US12391671, Compound 043] |
| – | 1 nM | 2 nM | CC1=CNC([C@H](c2cc(F)ccc2O)N2CC3=CC=C(c4ccc(C5CCN(C)CC5)cc4)C(F)C3C2=O)N1 (stereo partly drawn) [US12391671, Compound 094] |
